Reference: ChEMBL document CHEMBL1148482, “Novel benzophenones as non-nucleoside reverse transcriptase inhibitors of HIV-1” (J Med Chem, 2004)

Columns and labels:
MT4 [1] = experiment: Antiviral activity against MT-4 cells infected with Nev-R strain of HIV-1; settings: Homo sapiens
MT4 [2] = experiment: Antiviral activity against MT-4 cells infected with wild-type HIV-1; settings: Homo sapiens
[3] = system: Human immunodeficiency virus 1; experiment: Antiviral activity against Y188C strain of HIV-1; type: functional, organism-based
[4] = system: Human immunodeficiency virus 1; experiment: Antiviral activity against wild-type HIV-1; type: functional, organism-based
[5] = system: Human immunodeficiency virus 1; experiment: Antiviral activity against E138K strain of HIV-1; type: functional, organism-based
[6] = system: Human immunodeficiency virus 1; experiment: Antiviral activity against G190A strain of HIV-1; type: functional, organism-based
[7] = system: Human immunodeficiency virus 1; experiment: Antiviral activity against K101E strain of HIV-1; type: functional, organism-based
[8] = system: Human immunodeficiency virus 1; experiment: Antiviral activity against K103N strain of HIV-1; type: functional, organism-based
[9] = system: Human immunodeficiency virus 1; experiment: Antiviral activity against K103N/G190A strain of HIV-1; type: functional, organism-based
[10] = system: Human immunodeficiency virus 1; experiment: Antiviral activity against K103N/L100I strain of HIV-1; type: functional, organism-based
[11] = system: Human immunodeficiency virus 1; experiment: Antiviral activity against K103N/P225H strain of HIV-1; type: functional, organism-based
[12] = system: Human immunodeficiency virus 1; experiment: Antiviral activity against K103N/V108I strain of HIV-1; type: functional, organism-based
[13] = system: Human immunodeficiency virus 1; experiment: Antiviral activity against K103N/Y181C strain of HIV-1; type: functional, organism-based
[14] = system: Human immunodeficiency virus 1; experiment: Antiviral activity against P225H strain of HIV-1; type: functional, organism-based
[15] = system: Human immunodeficiency virus 1; experiment: Antiviral activity against P236L strain of HIV-1; type: functional, organism-based
[16] = system: Human immunodeficiency virus 1; experiment: Antiviral activity against V106A strain of HIV-1; type: functional, organism-based
[17] = system: Human immunodeficiency virus 1; experiment: Antiviral activity against V106A/Y181C strain of HIV-1; type: functional, organism-based
[18] = system: Human immunodeficiency virus 1; experiment: Antiviral activity against V106I strain of HIV-1; type: functional, organism-based
[19] = system: Human immunodeficiency virus 1; experiment: Antiviral activity against V106I/Y181C strain of HIV-1; type: functional, organism-based
[20] = system: Human immunodeficiency virus 1; experiment: Antiviral activity against V108I strain of HIV-1; type: functional, organism-based
[21] = system: Human immunodeficiency virus 1; experiment: Antiviral activity against V108I/Y181C strain of HIV-1; type: functional, organism-based
[22] = system: Human immunodeficiency virus 1; experiment: Antiviral activity against Y181C strain of HIV-1; type: functional, organism-based
[23] = system: Human immunodeficiency virus 1; experiment: Antiviral activity against L100I strain of HIV-1; type: functional, organism-based

| SMILES | IC50 (MT4 [1]) [nM] | IC50 (MT4 [2]) [nM] | IC50 [3] [nM] | IC50 [4] [nM] | IC50 [5] [nM] | IC50 [6] [nM] | IC50 [7] [nM] | IC50 [8] [nM] | IC50 [9] [nM] | IC50 [10] [nM] | IC50 [11] [nM] | IC50 [12] [nM] | IC50 [13] [nM] | IC50 [14] [nM] | IC50 [15] [nM] | IC50 [16] [nM] | IC50 [17] [nM] | IC50 [19] [nM] | IC50 [20] [nM] | IC50 [21] [nM] | other results |
| --- | --- | --- | --- | --- | --- | --- | --- | --- | --- | --- | --- | --- | --- | --- | --- | --- | --- | --- | --- | --- | --- |
| O=C1Nc2ccc(Cl)cc2[C@@](C#CC2CC2)(C(F)(F)F)O1 [EFAVIRENZ] | 2.7 | 3.5 | – | – | – | – | – | – | – | – | – | – | – | – | – | – | – | – | – | – | – |
| Cc1ccnc2c1NC(=O)c1cccnc1N2C1CC1 [NEVIRAPINE] | 17200 | 96 | 2300 | 100 | 65 | > 10000 | 520 | 6600 | > 10000 | 8000 | 9800 | 15000 | > 10000 | 1200 | 56 | 9000 | > 10000 | > 10000 | 290 | > 10000 | IC50 [18]: 150 nM; IC50 [22]: 9400 nM; IC50 [23]: 500 nM |
| CC(C)Nc1cccnc1N1CCN(C(=O)c2cc3cc(NS(C)(=O)=O)ccc3[nH]2)CC1 [DELAVIRDINE] | 2400 | 160 | 170 | 200 | 10 | 35 | 29 | 2700 | 2700 | > 8400 | 2300 | 3500 | > 8400 | 11 | 1600 | 900 | > 10000 | 4500 | 78 | > 10000 | IC50 ([18]; read-out: IC50): 55 nM; IC50 [22]: 2300 nM; IC50 [23]: 920 nM |
